Experimental data reported in article PMC5893132, “Selective inhibition of histamine-evoked Ca^2+ signals by compartmentalized cAMP in human bronchial airway smooth muscle cells” (Cell Calcium, 2018).

Legend:
Assay type in all cases: cell-based, human
L-type Ca^2+ channels = assay: Depolarization (K+)-evoked increase in [Ca2+]i in single fura-2-loaded hBASMCs; settings: nimodipine 10 μM, 5 min; extracellular Na+ replaced with K+ 140 mM; all 44 cells, mean ± SD, single experiment; 50 ± 11 nM in absence
[1] = tested on: Ca^2+ signals evoked by histamine, bradykinin or carbachol in hBASMCs; assay: GPCR-evoked Ca2+ signals (histamine, bradykinin or carbachol, stated together) in hBASMCs; settings: HBSS; for whether the inhibitor substantially affected the Ca2+ signals evoked by histamine, bradykinin or carbachol: ryanodine 50 μM or trans Ned-19 1 μM, 5 min
Experimental: (§1) Two methods were used to measure [Ca^2+]i in populations of hBASMCs. For measurements using a FlexStation III plate-reader (Molecular Devices, Sunnyvale, CA, USA), hBASMCs were seeded into 96-well plates (10^4 cells per well). After about 4 days, when the cells were confluent, the medium was replaced with SMGM-2 without serum or growth factor supplements, and the cells were used after a further 24 h. […] Cells were washed with HEPES-buffered saline (HBS: 135 mM NaCl, 5.9 mM KCl, 1.2 mM MgCl2, 1.5 mM CaCl2, 11.6 mM HEPES, 11.5 mM D-glucose, pH 7.3), and loaded with fluo-4 by incubation with fluo-4-AM (2 μM) in HBS (100 μL per well) containing pluronic F127 (0.02%, v/v) and probenecid (2.5 mM). After 1 h at 20 °C, the medium was replaced with HBS (100 μL per well) containing probenecid (2.5 mM). After a further incubation at 20 °C for 1 h, the medium was replaced with HBS (60–80 μL per well) or nominally Ca^2+-free HBS, and the cells were used immediately for experiments at 20 °C. […] Drug additions (20 μL at 4 or 5 times the final concentration) were added automatically. Fluorescence from fluo-4 (excitation 485 nm, emission 525 nm) was recorded at 1.44-s intervals using Softmax Pro 5.4 (Molecular Devices). Fluorescence was calibrated to [Ca^2+]i from: [Ca^2+]i=KDCa×(F−Fmin/Fmax−F) where, KDCa is the equilibrium dissociation constant of fluo-4 for Ca^2+ (345 nM), F is the recorded fluorescence, and Fmin and Fmax are the fluorescence values recorded after addition of triton-X-100 (0.1%, v/v) with either BAPTA (10 mM, Fmin) or CaCl2 (10 mM, Fmax). […] Fmax was determined for each well at the end of an experiment, and the average value was used for each column of 8 wells. Fmin was determined from parallel wells on each plate.
(§2) For measurements of [Ca^2+]i using an FDSS 7000 FLIPR (Hamamatsu), hBASMCs were seeded into 384-well plates (8000 cells per well) in 20 μL of SMGM-2 containing 5% serum. […] The exact composition of this ‘no-wash’ indicator kit is not disclosed by the manufacturer, but it contains fluo-4-AM and components that reduce background fluorescence. […]

[2] = tested on: histamine-evoked Ca^2+ signals in hBASMCs; assay: Histamine-evoked Ca2+ signals in populations of fluo-4-loaded hBASMCs; settings: for effect on histamine-evoked Ca2+ signals: pre-treatment: 8-Br-cGMP, IBMX 20 min, forskolin 10 μM, NKH477 10 μM, butaprost 10 μM, TCS2510 1 μM 5 min; for effect on the sensitivity to histamine: trans Ned-19 1 μM or ryanodine 50 μM, 5 min, HBSS
Experimental: Two methods were used to measure [Ca^2+]i in populations of hBASMCs. For measurements using a FlexStation III plate-reader (Molecular Devices, Sunnyvale, CA, USA), hBASMCs were seeded into 96-well plates (10^4 cells per well). After about 4 days, when the cells were confluent, the medium was replaced with SMGM-2 without serum or growth factor supplements, and the cells were used after a further 24 h. This period in serum-free medium increased by about 2-fold the amplitude of the increases in [Ca^2+]i evoked by histamine (results not shown). Cells were washed with HEPES-buffered saline (HBS: 135 mM NaCl, 5.9 mM KCl, 1.2 mM MgCl2, 1.5 mM CaCl2, 11.6 mM HEPES, 11.5 mM D-glucose, pH 7.3), and loaded with fluo-4 by incubation with fluo-4-AM (2 μM) in HBS (100 μL per well) containing pluronic F127 (0.02%, v/v) and probenecid (2.5 mM). After 1 h at 20 °C, the medium was replaced with HBS (100 μL per well) containing probenecid (2.5 mM). After a further incubation at 20 °C for 1 h, the medium was replaced with HBS (60–80 μL per well) or nominally Ca^2+-free HBS, and the cells were used immediately for experiments at 20 °C. In some experiments, BAPTA (2.5 mM) was added to HBS during the recording; this reduced the free [Ca^2+] of the HBS to ∼120 nM without affecting the pH. Drug additions (20 μL at 4 or 5 times the final concentration) were added automatically. Fluorescence from fluo-4 (excitation 485 nm, emission 525 nm) was recorded at 1.44-s intervals using Softmax Pro 5.4 (Molecular Devices). Fluorescence was calibrated to [Ca^2+]i from: [Ca^2+]i=KDCa×(F−Fmin/Fmax−F) where, KDCa is the equilibrium dissociation constant of fluo-4 for Ca^2+ (345 nM), F is the recorded fluorescence, and Fmin and Fmax are the fluorescence values recorded after addition of triton-X-100 (0.1%, v/v) with either BAPTA (10 mM, Fmin) or CaCl2 (10 mM, Fmax). Although treatment with triton-X-100 releases fluo-4 from cells into the medium, the fluo-4 fluorescence is captured with the same efficiency whether it is trapped within cells or dispersed within the small volume of the wells (unpublished observations). Fmax was determined for each well at the end of an experiment, and the average value was used for each column of 8 wells. Fmin was determined from parallel wells on each plate.
For measurements of [Ca^2+]i using an FDSS 7000 FLIPR (Hamamatsu), hBASMCs were seeded into 384-well plates (8000 cells per well) in 20 μL of SMGM-2 containing 5% serum. After 24 h, the medium was replaced with 15 μL of serum-free SMGM-2, and after a further 6 h the cells were loaded with Ca^2+ indicator by addition of FLIPR calcium 4 assay kit (Molecular Devices) supplemented with probenecid (2.5 mM). The exact composition of this ‘no-wash’ indicator kit is not disclosed by the manufacturer, but it contains fluo-4-AM and components that reduce background fluorescence. The manufacture’s stock solution was diluted 10-fold into HBSS containing BSA (0.1%, w/v) and HEPES (20 mM); 5 μL of this solution was then added to each well (containing 15 μL of serum-free SMGM-2). After 2 h at 37 °C in humidified air containing 5% CO2, the plate was used for experiments at 20 °C. Most additions (5 μL) were prepared in HBSS supplemented with HEPES (20 mM) and BSA (0.1%, w/v). For more prolonged incubations, drugs were diluted in the initial loading medium (to avoid changes in dye-loading during the ‘no wash’ protocol). Fluorescence signals (excitation at 480 nm, emission at 540 nm) were calibrated to [Ca^2+]i after measurement of Fmin and Fmax uniquely for each well, using a KDCa = 345 nM.
All concentration-effect relationships were determined by addition of different drug concentrations to individual wells in the same multi-well plate, rather than by sequential additions to the same well. […]

[3] = tested on: intracellular Ca^2+ stores of hBASMCs; assay: Ca2+ content of intracellular stores, by ionomycin in Ca2+-free HBS; settings: isoproterenol, forskolin 10 μM, 5 min, 2-APB 5 min, higher concentrations needed than for inhibition of GPCR-evoked signals
[4] = tested on: intracellular cAMP in hBASMCs; assay: Intracellular cAMP in hBASMCs by mass spectrometry; settings: IBMX 20 min; MS
Experimental: These methods were modified from. Confluent cultures of hBASMCs in 48-well plates were serum-deprived (6–24 h) and the medium was then replaced with HBSS (300 μL) containing HEPES (5 mM) and BSA (0.1%, w/v). Cells were stimulated at 20 °C, and reactions were terminated by aspiration of the medium and addition of acetonitrile (170 μL) containing dibutyryl cAMP (0.5 μM, to provide an internal standard). The plates were centrifuged (1500 xg, 15 min, 4 °C), supernatants (158 μL) were transferred to a 96-well, glass-coated plate (Thermo Scientific), and aqueous NH4HCO3 (pH 9.4, 93 μL) was added to each sample. After mixing and centrifugation (1500 xg, 15 min, 4 °C), samples were stored at 4 °C before analysis. Samples were analyzed by liquid chromatography tandem mass spectrometry (LC–MS/MS) using a Waters Acquity UPLC and a Sciex 5500 mass spectrometer equipped with an electrospray ionization source. ATP, ADP, AMP and cAMP were analyzed using a ZIC-pHILIC polymeric column (5-μm particle size, […]) maintained at 35 °C. Calibration standards were prepared in the lysis medium containing the internal standard, dibutyryl cAMP (0.5 μM). […] Samples were detected using multiple reaction monitoring in negative ion mode using the following parent-to-daughter mass transitions: cAMP m/z 327.9 → 133.9 (DP −100 V, CE −33 eV), AMP m/z 345.9 → 134.0 (DP −100 V, CE −50 eV), ADP m/z 426.0 → 134.0 (DP −100 V, CE −30 eV), ATP m/z 505.9 → 408.0 (DP −100 V, CE −35 eV), and internal standard dibutyryl cAMP m/z 468.1 → 175.0 (DP −100 V, CE −35 eV). Concentration-effect relationships were fitted to logistic equations for each experiment using GraphPad Prism (version 5, GraphPad Software, La Jolla, CA, USA), from which half-maximally effective drug concentrations (EC50), maximal responses, and Hill slopes were determined. For statistical analyses, maximal responses, Hill slopes and pEC50 (-logEC50) or pIC50 (-log of the half-maximal inhibitory concentration, IC50) values determined for individual experiments were pooled for statistical analysis. […]

[5] = tested on: bradykinin-evoked Ca^2+ signals in hBASMCs; assay: Bradykinin-evoked Ca2+ signals in populations of fluo-4-loaded hBASMCs; settings: Homo sapiens; bradykinin 1 nM; pre-incubation 30 min; n = 3; read-out: pIC50 for inhibition of the Ca2+ signals evoked by bradykinin (converted)
Experimental: as §1, §2

[6] = tested on: carbachol-evoked Ca^2+ signals in hBASMCs; assay: Carbachol-evoked Ca2+ signals in populations of fluo-4-loaded hBASMCs; settings: Homo sapiens; carbachol 10 μM; pre-incubation 30 min; n = 3; read-out: pIC50 for inhibition of the Ca2+ signals evoked by carbachol (converted)
Experimental: as §1, §2

## COCCOC(=O)C1=C(C)NC(C)=C(C(=O)OC(C)C)C1c1cccc([N+](=O)[O-])c1 (stereo not shown) [nimodipine]
L-type Ca^2+ channels
  peak increase in [Ca2+]i on depolarization in presence of inhibitor: 20 ± 14 nM
[1]; added 5 min before stimulus, nimodipine 10 μM, 2-APB indicated concentrations
  effect on the increases in [Ca2+]i evoked by histamine, bradykinin and carbachol: unaffected

## C=C[C@@]1(C)CC(=O)[C@]2(O)[C@@]3(C)[C@@H](O)CCC(C)(C)[C@@H]3[C@H](O)[C@H](OC(C)=O)[C@@]2(C)O1 [forskolin]
[2]
  effect on histamine-evoked Ca2+ signals: mimicked the effect of isoproterenol
[3]
  effect on the Ca2+ content of the intracellular stores: Neither isoproterenol nor forskolin (10 μM, 5 min) affected

## CC(C)[C@@]1(O)[C@@H](OC(=O)c2ccc[nH]2)[C@@]2(O)[C@@]3(C)C[C@]4(O)O[C@@]5([C@H](O)[C@@H](C)CC[C@]35O)[C@@]2(O)[C@@]14C [ryanodine]
[2]
  effect on the sensitivity to histamine: slightly reduced
[1]
  whether the inhibitor substantially affected the Ca2+ signals evoked by histamine, bradykinin or carbachol: Neither

## COc1ccc([C@H]2N[C@H](C(=O)O)Cc3c2[nH]c2ccccc32)cc1CN1CCN(c2ccccc2F)CC1 (relative stereo) [trans Ned-19, trans-Ned-19]
[2]
  effect on the sensitivity to histamine: slightly reduced
[1]
  whether the inhibitor substantially affected the Ca2+ signals evoked by histamine, bradykinin or carbachol: Neither

## CC(C)Cn1c(=O)n(C)c(=O)c2[nH]cnc21 [IBMX, 3-isobutyl-1-methylxanthine]
[2]
  effect on histamine-evoked Ca2+ signals: an inhibition of histamine-evoked Ca^2+ signals
[4]
  effect on intracellular cAMP: an accumulation of intracellular cAMP

## CCCCCCCCCCCCCCCCCCOCC(COP(=O)([O-])OCC[N+](C)(C)C)OC (stereo not shown) [edelfosine]
[2]; Homo sapiens, histamine 10 μM, pre-incubation 30 min, n = 3, read-out: pIC50 for inhibition of the Ca2+ signals evoked by histamine (converted)
  IC50: 22.9 µM
[5]
  IC50: 33.9 µM
[6]
  IC50: 39.8 µM
